Tests used:
[1] = 308.15 K, 101.3 kPa, Liquid; for viscosity: Capillary tube (Ostwald / Ubbelohde) method; for mass density: Pycnometric method; for speed of sound: Sing-around technique in a fixed-path interferometer
[2] = xn = mol fraction of the nth substance listed; conditions: 308.15 K, 101 kPa, Liquid; for viscosity: Capillary tube (Ostwald / Ubbelohde) method; for mass density: Pycnometric method; for speed of sound: Sing-around technique in a fixed-path interferometer

CCC(=O)CC [pentan-3-one]
[1]
Conditions | mass density [kg/m3] | speed of sound [m/s] | viscosity [mPa·s]
– | 800 | 1185 | 0.371

N#CCc1ccccc1 [benzeneacetonitrile] + CCC(=O)CC
[2]
Conditions | mass density [kg/m3] | speed of sound [m/s] | viscosity [mPa·s]
x1 = 0.0235 | 806 | 1199 | 0.388
x1 = 0.1407 | 835.4 | 1237 | 0.474
x1 = 0.2569 | 861.5 | 1278 | 0.567
x1 = 0.358 | 883.3 | 1314 | 0.665
x1 = 0.4803 | 909 | 1354 | 0.79
x1 = 0.6048 | 933.7 | 1397 | 0.936
x1 = 0.6943 | 951.2 | 1421 | 1.064
x1 = 0.8378 | 976.7 | 1471 | 1.281
x1 = 0.9722 | 998.9 | 1496 | 1.528
x1 = 1 | 1003.2 | 1518 | 1.585

N#CCc1ccccc1 [benzeneacetonitrile] + CCC(C)=O
[2]
Conditions | mass density [kg/m3] | speed of sound [m/s] | viscosity [mPa·s]
x1 = 0.0205 | 796.1 | 1167 | 0.334
x1 = 0.1218 | 825.9 | 1208 | 0.412
x1 = 0.2283 | 854 | 1265 | 0.497
x1 = 0.3188 | 876.8 | 1308 | 0.583
x1 = 0.4403 | 905.5 | 1356 | 0.72
x1 = 0.5655 | 931.3 | 1397 | 0.868
x1 = 0.6706 | 950.7 | 1421 | 1.015
x1 = 0.8086 | 974.1 | 1454 | 1.228
x1 = 0.9657 | 998.1 | 1497 | 1.498
x1 = 1 | 1003.2 | 1518 | 1.585

N#CCc1ccccc1 [benzeneacetonitrile] + CC(=O)CC(C)C
[2]
Conditions | mass density [kg/m3] | speed of sound [m/s] | viscosity [mPa·s]
x1 = 0.0271 | 792.5 | 1166 | 0.475
x1 = 0.16 | 823.3 | 1212 | 0.573
x1 = 0.2926 | 852.2 | 1261 | 0.679
x1 = 0.3931 | 874.6 | 1298 | 0.775
x1 = 0.5217 | 902.8 | 1340 | 0.91
x1 = 0.6436 | 928.9 | 1382 | 1.049
x1 = 0.7407 | 949.8 | 1414 | 1.164
x1 = 0.8599 | 976 | 1459 | 1.338
x1 = 0.9758 | 998.1 | 1498 | 1.523
x1 = 1 | 1003.2 | 1518 | 1.585

N#CCc1ccccc1 [benzeneacetonitrile] + CCCC(C)=O
[2]
Conditions | mass density [kg/m3] | speed of sound [m/s] | viscosity [mPa·s]
x1 = 0.0221 | 797 | 1189 | 0.41
x1 = 0.1416 | 826.8 | 1228 | 0.495
x1 = 0.2622 | 856 | 1271 | 0.6
x1 = 0.3564 | 877.5 | 1313 | 0.685
x1 = 0.4811 | 904.2 | 1363 | 0.819
x1 = 0.6125 | 931.5 | 1394 | 0.976
x1 = 0.7133 | 950.9 | 1418 | 1.1
x1 = 0.8389 | 974.8 | 1456 | 1.29
x1 = 0.9736 | 998.6 | 1499 | 1.509
x1 = 1 | 1003.2 | 1518 | 1.585

CCCC(C)=O [pentan-2-one] + N#CCc1ccccc1
[2], x2 = 0
Conditions | mass density [kg/m3] | speed of sound [m/s] | viscosity [mPa·s]
– | 790.8 | 1179 | 0.394

CCCC(C)=O [pentan-2-one]
[1]
Conditions | mass density [kg/m3] | speed of sound [m/s] | viscosity [mPa·s]
– | 790.8 | 1179 | 0.394

CC(=O)CC(C)C [4-methylpentan-2-one] + N#CCc1ccccc1
[2], x2 = 0
Conditions | mass density [kg/m3] | speed of sound [m/s] | viscosity [mPa·s]
– | 786.8 | 1150 | 0.455

CC(=O)CC(C)C [4-methylpentan-2-one]
[1]
Conditions | mass density [kg/m3] | speed of sound [m/s] | viscosity [mPa·s]
– | 786.8 | 1150 | 0.455

CCC(C)=O [butanone] + N#CCc1ccccc1
[2], x2 = 0
Conditions | mass density [kg/m3] | speed of sound [m/s] | viscosity [mPa·s]
– | 789.2 | 1157 | 0.316

N#CCc1ccccc1 [benzeneacetonitrile]
[1]
Conditions | mass density [kg/m3] | speed of sound [m/s] | viscosity [mPa·s]
– | 1003.2 | 1518 | 1.585

CCC(=O)CC [pentan-3-one] + N#CCc1ccccc1
[2], x2 = 0
Conditions | mass density [kg/m3] | speed of sound [m/s] | viscosity [mPa·s]
– | 800 | 1185 | 0.371

CCC(C)=O [butanone]
[1]
Conditions | mass density [kg/m3] | speed of sound [m/s] | viscosity [mPa·s]
– | 789.2 | 1157 | 0.316

Source: the NIST ThermoML archive (doi:10.1021/je8003723)
